Assay [1] deals with T1, serotonin 2 receptor (Rattus norvegicus, UniProt P14842).
T1 construct: A piece of wire was inserted into each of the thus excised blood vessels to prepare a spiral specimen; from tissue; host or cells: rat (Wistar-KY) abdominal side tail artery, spiral specimen
The assay is described as follows: Measurement of serotonin 2 receptor antagonistic activity (serotonin contraction of excised rat tail artery spiral specimen). It counts as cell-based. To be noted: against the contraction of 3 x 10⁻⁶ serotonin, drug administered 10 minutes before cumulative serotonin, read-out: IC₅₀ value. How it is done: [Measurement of serotonin 2 receptor antagonistic activity]
Male rats of Wistar-KY line (body weight, approximately 220 to 370 g) were sacrificed and subjected to bloodletting to excise abdominal side tail arteries. A piece of wire was inserted into each of the thus excised blood vessels to prepare a spiral specimen (approximately 1.5 x 30 mm). The specimen was suspended in a Magnus tube (10 ml; Krebs-Hensereit solution) with a load of 500 mg at 37°C, and a gas mixture of 95% O₂ + CO₂ was passed through the tube. Tensile force was measured using a tension transducer (TB-621T, manufactured by Nippon Koden) and writing the data on an ink recorder (FBA-253A, manufactured by Toa Denpa) via a pressure amplifier (AP-621G, manufactured by Nippon Koden). After 1 hour of equilibration time, the specimen was contracted with 10⁻⁵ M of serotonin, washed and then subjected to cumulative administration of 10⁻⁸ to 3 x 10⁻⁵ M serotonin at intervals of 45 minutes to record the resulting contraction twice. The second recording was used as a control. Thereafter, each of the drugs to be tested was administered 10 minutes before the commencement of the cumulative administration to evaluate its serotonin antagonism. […] In the table, each result was indicated by "+" when the IC₅₀ value was 1.0 x 10⁻⁷ M or more, "++" when the value was 9.9 x 10⁻⁸ to 1.0 x 10⁻⁸ M and "+++" when the value was 9.9 x 10⁻⁹ M or smaller.

Assay [2] has as its system platelet aggregation. The assay is described as follows: Measurement of platelet aggregation inhibition activity (5-HTP plus collagen induced aggregation of platelet rich plasma). It counts as cell-based. Conditions: Oryctolagus cuniculus, rabbit PRP, 5-HTP final concentration 3 µM plus collagen in a concentration which alone does not cause aggregation, probit analysis, read-out: IC₅₀ value. The method, then:
[Measurement of platelet aggregation inhibition activity]
Measurement of platelet aggregation was carried out using a platelet aggregation measuring apparatus NSB Hematracer 601.
Blood samples were collected from auricular arteries of male Japanese white rabbits (2 to 3 kg) using a syringe containing 1 volume of 3.8% sodium citrate per 9 volumes of blood and centrifuged at 900 rpm for 10 minutes. After collecting the resulting supernatant fluid as platelet rich plasma (PRP), the remaining lower layer was centrifuged at 3,000 rpm for 10 minutes to obtain platelet poor plasma (PPP). Platelets in the thus obtained PRP were counted using a microcell counter (Sysmex F-800, manufactured by Toa Iyo Denshi) and diluted with the PPP to a density of 30 x 10⁴/µl.
A 220 µl portion of PRP was mixed with 5 µl of 104 mM CaCl₂, incubated at 37°C for 1 minute and then mixed with 5 µl of a drug to be tested or physiological saline as a control. […] Activities to inhibit the aggregation reaction were measured to calculate 50% inhibition concentration (IC₅₀) by probit analysis, with the results shown in Table 2. In the table, each result was indicated by "+" when the IC₅₀ value was 1.0 x 10⁻⁶ M or more, "++" when the value was 9.9 x 10⁻⁷ to 1.0 x 10⁻⁷ M and "+++" when the value was 9.9 x 10⁻⁸ M or smaller.

The subject of assay [3] is 5-HTP-induced head-twitch. Put plainly: Measurement of activity to inhibit 5-HTP-induced head-twitch. Format: in vivo, mouse. To be noted: read-out: IC₅₀ value. How it is done: [Measurement of activity to inhibit 5-HTP-induced head-twitch]
To each ICR male mouse of 4 weeks of age were administered 300 mg/kg of 5-HTP by intraperitoneal injection (i.p.) and then 0.03 to 3 mg/kg of each test drug 25 minutes thereafter by intravenous injection, thereby counting the number of head-twitch induced after 5 minutes of the administration (for 20 minutes) and calculating the IC₅₀ value. In the table, each result was indicated by "+" when the IC₅₀ value was […] or more, "++" when the value was 100 to 999 mg/kg and "+++" when the value was 99 mg/kg or less.

Counter-ions that a name gives are not always drawn. Like-named read-outs stand apart in the source and are kept apart here. A value given as a limit tells only on which side of the number the result lay.

T1 sequence (P14842 whole entry): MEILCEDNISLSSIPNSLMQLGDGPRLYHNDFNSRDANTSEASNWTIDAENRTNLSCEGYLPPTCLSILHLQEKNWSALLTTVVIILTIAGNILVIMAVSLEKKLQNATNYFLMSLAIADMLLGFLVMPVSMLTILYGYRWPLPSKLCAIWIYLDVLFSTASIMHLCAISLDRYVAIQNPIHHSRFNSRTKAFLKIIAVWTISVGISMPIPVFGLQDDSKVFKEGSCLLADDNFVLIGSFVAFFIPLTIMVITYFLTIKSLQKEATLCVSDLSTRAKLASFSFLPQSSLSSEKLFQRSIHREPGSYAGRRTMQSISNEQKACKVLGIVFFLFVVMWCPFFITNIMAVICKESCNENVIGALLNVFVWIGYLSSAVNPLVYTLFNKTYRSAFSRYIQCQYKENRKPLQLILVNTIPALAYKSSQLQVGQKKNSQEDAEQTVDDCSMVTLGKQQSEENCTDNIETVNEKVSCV

As for `COc1cccc(CC(CCN2CCC(C(=O)c3ccc(F)cc3)CC2)c2ccccc2OC)c1` (stereo not drawn) [A, 4-(4-Fluorobenzoyl)-1-[3-(2-methoxyphenyl)-4-(3-methoxyphenyl)butyl]piperidine hydrochloride], the IC50 in assay [1] fell in the range of 10 to 99 nM.
On the same count and under the same terms, under `COc1cccc(C(=O)N(CCN2CCC(C(=O)c3ccc(F)cc3)CC2)c2ccccc2OC)c1` [B, N-{2-[4-(4-Fluorobenzoyl)piperidino]ethyl}-3-methoxy-N-(2-methoxyphenyl)benzamide oxalate] stands 10 to 99 nM.
Take `COc1ccc(S(=O)(=O)N(CCN2CCC(C(=O)c3ccc(F)cc3)CC2)c2ccccc2OC)cc1` [C, N-{2-[4-(4-Fluorobenzoyl)piperidino]ethyl}-4-methoxy-N-(2-methoxyphenyl)benzenesulfonamide oxalate]: the IC50 in assay [2] is no less than 1000 nM.
Regarding `COc1ccc(S(=O)(=O)NC(=N)CCN2CCC(C(=O)c3ccc(F)cc3)CC2)cc1` [Compound I, 3-[4-(4-Fluorobenzoyl)piperidino]-N-(4-methoxybenzenesulfonyl)propionamidine oxalate], the IC50 in assay [1] was 10 to 99 nM.
With `COc1ccccc1N(CCN1CCC(C(=O)c2ccc(F)cc2)CC1)S(=O)(=O)c1ccc(F)cc1` [D, 4-Fluoro-N-{2-[4-(4-fluorobenzoyl)piperidino]ethyl}-N-(2-methoxyphenyl)benzenesulfonamide oxalate], in assay [1], the IC50 fell in the range of 10 to 99 nM.
The same measure, in the same setting: as for `COc1ccc(S(=O)(=O)N(CCN2CCC(C(=O)c3ccc(F)cc3)CC2)C2CCCCC2)cc1` [E, N-Cyclohexyl-N-{2-[4-(4-fluorobenzoyl)piperidino]ethyl}-4-methoxybenzenesulfonamide oxalate], the figure is 10 to 99 nM.
For the compound `COc1ccccc1N(CCN1CCC(C(=O)c2ccc(F)cc2)CC1)S(=O)(=O)c1ccc(CO)cc1` [F, N-{2-[4-(4-Fluorobenzoyl)piperidino]ethyl}-4-hydroxymethyl-N-(2-methoxyphenyl)benzenesulfonamide oxalate], the IC50 in assay [1] is less than 9.9 nM.
`COc1ccccc1N(CCN1CCC(C(=O)c2ccc(F)cc2)CC1)C(=O)c1ccc(CO)cc1.O=C(O)C(=O)O` [G, N-{2-[4-(4-Fluorobenzoyl)piperidino]ethyl}-4-hydroxymethyl-N-(2-methoxyphenyl)benzamide oxalate]: the ED50 in assay [3] (Mus musculus, iv) was less than 99 mg/kg. Moreover, in assay [2], the IC50 fell in the range of 100 to 990 nM.
For the compound `COc1ccccc1N(CCN1CCC(C(=O)c2ccc(F)cc2)CC1)C(=O)c1ccc(CN)cc1.O=C(O)C(=O)O` [H, 4-Aminomethyl-N-{2-[4-(4-fluorobenzoyl)piperidino]ethyl}-N-(2-methoxyphenyl)benzamide oxalate], the ED50 in assay [3] (Mus musculus, iv) is greater than 1000 mg/kg. Moreover, the IC50 in assay [1] fell in the range of 10 to 99 nM; in assay [2] it was 100 to 990 nM.
For `COc1cccc(N(CCN2CCC(C(=O)c3ccc(F)cc3)CC2)C(=O)c2ccc(NC(C)=O)cc2)c1.O=C(O)/C=C/C(=O)O` [J, 4-Acetylamino-N-{2-[4-(4-fluorobenzoyl)piperidino]ethyl}-N-(3-methoxyphenyl)benzamide fumarate] the same measures were 100 to 999 mg/kg, 10 to 99 nM and less than 99 nM.
On to `CC(=O)Nc1ccc(C(=O)N(CCN2CCC(C(=O)c3ccc(F)cc3)CC2)c2ccccc2)cc1` [K, 4-Acetylamino-N-{2-[4-(4-fluorobenzoyl)piperidino]ethyl}-N-(phenyl)benzamide fumarate], for which the IC50 in assay [1] was 10 to 99 nM.
On to `O=C(c1ccc(F)cc1)C1CCN(CCn2c(=O)[nH]c3ccccc3c2=O)CC1` [ketanserin, reference compound], for which the ED50 in assay [3] (ICR male mouse, 300 mg/kg 5-HTP i.p., test drug 0.03 to 3 mg/kg intravenous 25 minutes thereafter, head-twitch counted for 20 minutes) is less than 99 mg/kg. In addition, the IC50 in assay [2] was in the range of 100 to 990 nM.

The values are drawn from patent EP0661266A1, “Substituted cyclic amine compounds as 5HT2 antagonists” (TOA EIYO LTD., priority 1993, dated 1995).
